This is an account of results in patent EP0353821B1, “Antipsychotic 3-piperazinyl-benzazole derivatives” (JANSSEN PHARMACEUTICA N.V., priority 1988, dated 1990).

The subject of assay [1] is apomorphine-induced phenomena: agitation and stereotypic chewing. Description: Combined apomorphine-, tryptamine- and norepinephrine test in rats: apomorphine (APO) part. It counts as in vivo, adult male Wistar rats. As to conditions: Rattus norvegicus, read-out: Combined test in rats, ED₅₀ in mg/kg (APO). The method, then: (§1) The combined apomorphine (APO)-, tryptamine (TRY)- and norepinephrine (NOR) test in rats.
(§2) The experimental animals used in this test were adult male Wistar rats (weight 240 ± 10g). After an overnight fast the animals were treated subcutaneously or orally with an aqueous solution of the compound under investigation (1ml/100g body weight) (time = zero) and put in isolated observation cages. […] At the end of this 1 hour period (time = 90 minutes) the same animals were injected intravenously with 40 mg/kg of tryptamine (TRY) and the presence of the typical tryptamine-induced bilateral tonic seizures and hyperaemia of the ears was noted. Two hours after pretreatment (time = 120 minutes) finally, the same animals were challenged with 1.25 mg/kg intravenously of norephinephrine (NOR) and possible mortality was looked for up to 60 minutes later.
(§3) The table 3 gives the ED₅₀-values of a number of the compounds under consideration. As used herein, the ED₅₀-value represents the dose which protects 50% of the animals from apomorphine-, tryptamine- or norepinephrine-induced phenomena.

Assay [2] concerns tryptamine-induced bilateral tonic seizures and hyperaemia of the ears. The assay is described as follows: Combined apomorphine-, tryptamine- and norepinephrine test in rats: tryptamine (TRY) part. Conditions: Rattus norvegicus, 1.5 h, compound subcutaneously or orally, 40 mg/kg tryptamine i.v. at 90 minutes, dose which protects 50% of the animals, read-out: Combined test in rats. It counts as in vivo, adult male Wistar rats. The method, then:
as §1, §2, §3

The subject of the next assay is apomorphine (emesis). Description: The apomorphine test in dogs (APO-dog). It counts as in vivo, beagle dogs. As to conditions: Canis lupus familiaris, 1 h; compound subcutaneously or orally; 0.31 mg/kg (s.c.) apomorphine one hour thereafter; dose which protects 50% of the animals from emesis; read-out: (APO)-dog test, ED₅₀ in mg/kg. On the procedure:
The apomorphine test in dogs (APO-dog).
The method used is described by P.A.J. Janssen and C.J.E. Niemegeers in Arzneim.-Forsch. (Drug Res.), 9, 765-767 (1959). The compounds listed in table 3 were administered subcutaneously or orally to beagle dogs at different doses and the animals were challenged one hour thereafter with a standard dose of 0.31 mg/kg (s.c.) of apomorphine.
The table 3 gives the ED₅₀-values of a number of the compounds under consideration. As used herein, the ED₅₀ value represents the dose which protects 50% of the animals from emesis.

Assay [3] has as its system norepinephrine-induced phenomena (mortality). Description: Combined apomorphine-, tryptamine- and norepinephrine test in rats: norepinephrine (NOR) part. The assay is classed as in vivo, adult male Wistar rats. Conditions: Rattus norvegicus; compound subcutaneously or orally; 1.25 mg/kg norepinephrine i.v. at 120 minutes; mortality up to 60 minutes later; dose which protects 50% of the animals; read-out: Combined test in rats; ED₅₀ in mg/kg (NOR). The method, then: as §1, §2, §3

Setting [4] is: compound subcutaneously or orally, 1.25 mg/kg apomorphine i.v. at 30 minutes, observed 1 hour, dose which protects 50% of the animals.
[5] abbreviates: bilateral tonic seizures, ED₅₀ in mg/kg (TRY)-convulsions.
Where [6] appears, read: hyperaemia of the ears, ED₅₀ in mg/kg (TRY)-hyperaemia.

Structures are written as SMILES. Read-outs that look alike come from different tables or passages of the source.

Turning to `Cc1nc2c(C)cccn2c(=O)c1CCN1CCN(c2n[nH]c3cc(F)ccc23)CC1` [Compound 47], the ED50 in assay [1] (setting [4]) is 0.04 mg/kg; in assay [2] (setting [5]) it was 0.08 mg/kg; in assay [2] (setting [6]), 0.000125 mg/kg; in the assay with apomorphine (emesis), 0.001 mg/kg; in assay [3] it was 0.08 mg/kg.
Regarding `Cc1nc2sccn2c(=O)c1CCN1CCN(c2n[nH]c3ccccc23)CC1` [Compound 64], the ED50 in assay [1] worked out at 0.08 mg/kg; in assay [2] (setting [5]), 0.08 mg/kg; in assay [2] (setting [6]) it was 0.005 mg/kg; in assay [3], 1.25 mg/kg.
Turning to `Cc1nc2scc(C)n2c(=O)c1CCN1CCN(c2n[nH]c3cc(F)ccc23)CC1` [Compound 40], the ED50 is 0.02 mg/kg in assay [1] (setting [4]); 0.02 mg/kg in assay [2] (setting [5]); 0.00031 mg/kg in assay [2] (setting [6]); 0.0025 mg/kg in the assay on apomorphine (emesis); 0.08 mg/kg in assay [3].
For `Cc1nc2n(c(=O)c1CCN1CCN(c3noc4ccccc34)CC1)CCS2` [Compound 27], the ED50 in assay [1] (setting [4]) is 0.03 mg/kg; in assay [2] (setting [5]) it was 0.03 mg/kg; in assay [2] (setting [6]), 0.00125 mg/kg; in the assay with apomorphine (emesis), 0.06 mg/kg; in assay [3] it was 0.31 mg/kg.
Turning to `Cc1nc2n(c(=O)c1CCN1CCN(c3noc4cc(F)ccc34)CC1)CCCC2` [Compound 20], the ED50 in assay [1] (setting [4]) came out at 0.08 mg/kg; in assay [2] (setting [5]) it was 0.08 mg/kg; in assay [2] (setting [6]), 0.005 mg/kg; in the assay with apomorphine (emesis) it was 0.015 mg/kg.
In the case of `Cc1nc2n(c(=O)c1CCN1CCN(c3n[nH]c4cc(F)ccc34)CC1)CCCC2C` (stereo not drawn) [Compound 56], the ED50 in assay [1] (setting [4]) was determined as 0.08 mg/kg; in assay [2] (setting [5]), 0.08 mg/kg; in assay [2] (setting [6]), 0.005 mg/kg; in the assay on apomorphine (emesis), 0.00045 mg/kg; in assay [3] it was 0.16 mg/kg.
Take `Cc1nc2ccccn2c(=O)c1CCN1CCN(c2n[nH]c3ccccc23)CC1` [Compound 41]: the ED50 is 0.08 mg/kg in assay [1]; 0.04 mg/kg in assay [2] (setting [5]); 0.005 mg/kg in assay [2] (setting [6]); 0.03 mg/kg in the assay with apomorphine (emesis); 1.25 mg/kg in assay [3].
In the case of `Cc1nc2sccn2c(=O)c1CCN1CCN(c2n[nH]c3cc(F)ccc23)CC1` [Compound 63], the ED50 came out at 0.02 mg/kg in assay [1] (setting [4]); 0.02 mg/kg in assay [2] (setting [5]); 0.00125 mg/kg in assay [2] (setting [6]); 0.001 mg/kg with apomorphine (emesis); 0.16 mg/kg in assay [3].
Consider `Cc1nc2ccccn2c(=O)c1CCN1CCN(c2nsc3ccccc23)CC1` [Compound 11], for which the ED50 was 0.08 mg/kg in assay [1]; 0.08 mg/kg in assay [2] (setting [5]); 0.00031 mg/kg in assay [2] (setting [6]); 0.45 mg/kg in the assay on apomorphine (emesis); 1.25 mg/kg in assay [3].
In the case of `Cc1nc2ccccn2c(=O)c1CCN1CCN(c2noc3cc(F)ccc23)CC1` [Compound 15], the ED50 worked out at 0.04 mg/kg in assay [1] (setting [4]); 0.08 mg/kg in assay [2] (setting [5]); 0.005 mg/kg in assay [2] (setting [6]); 0.015 mg/kg in the assay on apomorphine (emesis); 0.31 mg/kg in assay [3].
On the same counts, the results for `Cc1nc2sccn2c(=O)c1CCN1CCN(c2noc3cc(F)ccc23)CC1` [Compound 34] are 0.02 mg/kg, 0.08 mg/kg, less than 0.01 mg/kg, 0.015 mg/kg and 0.31 mg/kg.
On the same counts, the results for `Cc1nc2n(c(=O)c1CCN1CCN(c3noc4cc(F)ccc34)CC1)CCCS2` [Compound 25] are 0.08 mg/kg, 0.08 mg/kg, no more than 0.01 mg/kg, 0.06 mg/kg and 0.31 mg/kg.
On the same counts, the results for `Cc1nc2scc(C)n2c(=O)c1CCN1CCN(c2noc3cc(F)ccc23)CC1` [Compound 39] are 0.08 mg/kg, 0.04 mg/kg, less than 0.04 mg/kg, 0.03 mg/kg and 0.31 mg/kg.
Turning to `Cc1nc2ccccn2c(=O)c1CCN1CCN(c2n[nH]c3cc(F)ccc23)CC1` [Compound 16], the ED50 in assay [1] (setting [4]) was 0.08 mg/kg; in assay [2] (setting [5]), 0.08 mg/kg; in assay [2] (setting [6]), 0.005 mg/kg; in the assay with apomorphine (emesis), less than 0.01 mg/kg.
Turning to `Cc1nc2n(c(=O)c1CCN1CCN(c3nsc4ccccc34)CC1)CCS2` [Compound 26], the ED50 worked out at 0.08 mg/kg in assay [1] (setting [4]); 0.02 mg/kg in assay [2] (setting [5]); 0.00125 mg/kg in assay [2] (setting [6]); 0.03 mg/kg in the assay with apomorphine (emesis); 5 mg/kg in assay [3].
The like results for `Cc1nc2n(c(=O)c1CCN1CCN(c3nsc4ccccc34)CC1)CCCC2C` (stereo not drawn) [Compound 55] were, in that order, 0.04 mg/kg, 0.04 mg/kg, 0.0025 mg/kg, greater than 0.016 mg/kg and 10 mg/kg.
Turning to `Cc1nc2sccn2c(=O)c1CCN1CCN(c2noc3ccccc23)CC1` [Compound 31], the ED50 in assay [1] amounted to 0.03 mg/kg; in assay [2] (setting [5]), 0.02 mg/kg; in assay [2] (setting [6]), 0.00031 mg/kg; in the assay on apomorphine (emesis), 0.03 mg/kg; in assay [3], 1.25 mg/kg.
For `Cc1nc2n(c(=O)c1CCN1CCN(c3noc4cc(F)ccc34)CC1)CCS2` [Compound 3, 6-[2-[4-(6-fluoro-1,2-benzisoxazol-3-yl)-1-piperazinyl]ethyl]-2,3-dihydro-7-methyl-5H-thiazolo[3,2-a]pyrimidin-5-one], the ED50 in assay [1] (setting [4]) came out at 0.02 mg/kg; in assay [2] (setting [5]), 0.005 mg/kg; in assay [2] (setting [6]), 0.00125 mg/kg; in the assay with apomorphine (emesis), 0.07 mg/kg; in assay [3] it was 0.08 mg/kg.
On to `Cc1nc2scc(C)n2c(=O)c1CCN1CCN(c2n[nH]c3ccccc23)CC1` [Compound 65], for which the ED50 is 0.08 mg/kg in assay [1], 0.04 mg/kg in assay [2] (setting [5]), 0.00063 mg/kg in assay [2] (setting [6]) and 1.25 mg/kg in assay [3].
In the case of `Cc1nc2c(C)cccn2c(=O)c1CCN1CCN(c2noc3ccccc23)CC1` [Compound 45], the ED50 was 0.04 mg/kg in assay [1]; 0.08 mg/kg in assay [2] (setting [5]); 0.02 mg/kg in assay [2] (setting [6]); greater than 0.01 mg/kg in the assay on apomorphine (emesis); 1.25 mg/kg in assay [3].
